Experimental data: patent US20230011869A1 (Hoffmann-La Roche Inc., priority 2018, published 2023)
Structures can show the parent of a compound that is named as a salt.

system: Acinetobacter baumannii ATCC17978; experiment: Antimicrobial susceptibility testing: 90% growth inhibitory concentration (IC90) determination, Iso-Sensitest broth; type: cell-based; conditions: 90% growth inhibitory concentration, Acinetobacter baumannii ATCC17978, Iso-Sensitest broth, OD 600 nm over 16 h; read-out: ATCC17978 IC90
In short: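 A. baumannii ATCC17978 grown in Iso-Sensitest broth across 10 compound concentrations at 35±2 °C.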

First: Cc1cc(Nc2nccn3c(-c4ccc(OCc5ccccn5)c(F)c4F)cnc23)ccc1C(=O)N1CCC(CN)CC1 [Example 125, [4-(aminomethyl)-1-piperidyl]-[4-[[3-[2,3-difluoro-4-(2-pyridylmethoxy)phenyl]imidazo[1,2-a]pyrazin-8-yl]amino]-2-methyl-phenyl]methanone; formic acid]
Second: Cc1cc(Nc2nccn3c(-c4ccc(OCC#N)c(F)c4F)cnc23)ccc1C(=O)N1CCC(C(=O)N2CCNC[C@@H]2CO)CC1 [Example 497, 2-[2,3-difluoro-4-[8-[4-[4-[(2R)-2-(hydroxymethyl)piperazine-1-carbonyl]piperidine-1-carbonyl]-3-methylanilino]imidazo[1,2-a]pyrazin-3-yl]phenoxy]acetonitrile; for-mic acid]
The IC90 of the first is 5.2-fold higher: 1.7 µM for the first, 0.33 µM for the second.

`Cc1cc(Nc2nccn3c(-c4ccc(OC(F)F)cc4)cnc23)ccc1C(=O)N1CCC(Cc2cnc[nH]2)CC1` [Example 72, (4-((1H-imidazol-4-yl)methyl)piperidin-1-yl)(4-((3-(4-(difluoromethoxy)phenyl)imidazo[1,2-a]pyrazin-8-yl)amino)-2-methylphenyl)methanone] and `Cc1cc(Nc2nccn3c(-c4ccc(OC(F)F)cc4)cnc23)ccc1C(=O)N1CCC(C(=O)N2CCNC(CO)C2)CC1` (stereo not shown) [Example 183, [4-[[3-[4-(difluoromethoxy)phenyl]imidazo[1,2-a]pyrazin-8-yl]amino]-2-methyl-phenyl]-[4-[3-(hydroxymethyl)piperazine-1-carbonyl]-1-piperidyl]methanone hydrochloride] are within 1.5-fold of each other in IC90: 0.26 µM for the first, 0.27 µM for the second.

Going from `COc1ccc(-c2cnc3c(Nc4ccc(C(=O)N5CCC(C(=O)O)CC5)c(C)c4)nccn23)cc1F` [Example 2, 1-(4-((3-(3-fluoro-4-methoxyphenyl)imidazo[1,2-a]pyrazin-8-yl)amino)-2-methylbenzoyl)piperidine-4-carboxylic acid] to `COc1ccc(-c2cnc3c(Nc4ccc(C(=O)N5CCC(C(=O)N6CCN[C@@H](C(=O)O)C6)CC5)c(C)c4)nccn23)cc1F` [Example 558, (R)-4-(1-(4-((3-(3-fluoro-4-methoxyphenyl)imidazo[1,2-a]pyrazin-8-yl)amino)-2-methylbenzoyl)piperidine-4-carbonyl)piperazine-2-carboxylic acid hydrochloride], the IC90 falls from 1.7 µM to 0.922 µM (1.8-fold).

`Cc1cc(Nc2nccn3c(-c4ccc(OC(F)F)cc4)cnc23)ccc1C(=O)N1CCN(C(=O)NCC2CNC2)CC1` [Example 144, N-(azetidin-3-ylmethyl)-4-[4-[[3-[4-(difluoromethoxy)phenyl]imidazo[1,2-a]pyrazin-8-yl]amino]-2-methyl-benzoyl]piperazine-1-carboxamide formate] was tested, and the IC90 was 0.13 µM.

same assay, conditions: Acinetobacter baumannii, ATCC17978, 16 h, read-out: ATCC17978 IC90, 90% growth inhibitory concentration, Acinetobacter baumannii ATCC17978, Iso-Sensitest broth, OD 600 nm over 16 h

`Cc1cc(Nc2nccn3c(-c4ccc(OC(F)F)cc4)cnc23)ccc1C(=O)N1CCC(C(=O)N(C)CCN2CCNC(=O)C2)CC1` [Example 404, 1-[4-[[3-[4-(difluoromethoxy)phenyl]imi-dazo[1,2-a]pyrazin-8-yl]amino]-2-methylbenzoyl]-N-methyl-N-[2-(3-oxopiperazin-1-yl)ethyl]piperidine-4-carboxamide] and `Cc1cc(Nc2nccn3c(-c4ccc(OC(F)F)cc4)cnc23)ccc1C(=O)N1CCN(C(=O)[C@H]2NCC[C@H]2O)CC1` [Example 512, [4-[[3-[4-(difluoromethoxy)phenyl]imi-dazo[1,2-a]pyrazin-8-yl]amino]-2-methylphenyl]-[4-[(2S,3R)-3-hydroxypyrrolidine-2-carbonyl]piperazin-1-yl]methanone; hydrochloride] are within 1.5-fold of each other in IC90: 0.47 µM for the first, 0.57 µM for the second.

`COc1ccc(-c2cnc3c(Nc4ccc(C(=O)N5CCC(C(=O)NCC6(O)CCNC6)CC5)c(C)c4)nccn23)cc1F` (stereo not shown) [Example 54, 1-(4-((3-(3-fluoro-4-methoxyphenyl)imidazo[1,2-a]pyrazin-8-yl)amino)-2-methylbenzoyl)-N-((3-hydroxypyrrolidin-3-yl)methyl)piperidine-4-carboxamide 2,2,2-trifluoroacetate] gave an IC90 of 0.37 µM.
